The source of these data is ChEMBL document CHEMBL5728321, “Therapeutically active compounds and their methods of use” (2021).

The nature of the experiment: In Vitro Assays for IDH1m (R132H or R132C) Inhibitors: In the primary reaction, the reduction of α-KG acid to 2-HG is accompanied by a concomitant oxidation of NADPH to NADP. The amount of NADPH remaining at the end of the reaction time is measured in a secondary diaphorase/resazurin reaction in which the NADPH is consumed in a 1:1 molar ratio with the conversion of resazurin to the highly fluorescent resorufin. […] The mixture of compound, enzyme, and cofactor is pre-incubated at room temperature for 1 hr prior to the addition of alpha-ketoglutarate. To perform the secondary reaction, 10 uL of 1× buffer containing 36 μg/ml diaphorase and 30 mM resazurin is added to the primary reaction and incubated for a further 5 minutes at 25° C. Florescence is read on a Spectramax platereader at Ex 544 Em 590. Compounds or compound dilutions are prepared in 100% DMSO concentration and diluted 1:50 into the final reaction. IDH1 wt/IDH1 R132C is assayed under similar conditions except that 1× Buffer is 50 mM K2HPO4, pH 6.5; 10 mM MgCl2; 10% glycerol; 0.03% (w/v) bovine serum albumin and final concentrations are 0.4 ug/mL (4.3 nM) IDH1 wt/IDH1 R132C heterodimer, 0.02 mM alpha-ketoglutarate, 4 uM NADPH, and either 300 μM NADP (saturated) or 30 μM NADP (without saturation). IC50s are determined.IDH1 or IDH2 wildtype (wt) and mutant heterodimers are expressed and purified by methods known in the art. For example, IDH1wt/R132m heterodimer is expressed and purified as follows. Co-expression of IDH1wt-his and IDH1R132C-flag is carried out in sf9 insect cells. Cells (25 g) are resuspended in 250 ml of 50 mM Tris, 500 mM NaCl, pH7.4, at 4° C. with stirring. Cells are disrupted with 4 passes through an M-Y110 Micro fluidizer (Microfluidics) set to 500 psi, and then centrifuged at 22,000 rcf for 20 min at 4° C. The supernatant is harvested and loaded at 15 cm/h on a Histrap FF 5*1 ml column (GE) which is equilibrated with 50 mM Tris, 500 mM NaCl, pH7.4. Host cell contaminants are removed by washing the column with equilibration buffer followed by equilibration buffer containing 20 mM imidazole and 60 mM imidazole to baseline. IDH1wt-his homodimer and IDH1wt-his/IDH1R132C-flag are eluted by equilibration buffer containing 250 mM imidazole. Fractions eluted by 250 mM imidazole are pooled together and loaded at 15 cm/h onto a column pre-packed with 10 ml ANTI-FLAG® M2 Affinity Gel (Sigma), the column is equilibrated with 50 mM Tris, 500 mM NaCl, pH7.4. After washing with equilibration buffer, IDH1wt-his/IDH1R132C-flag heterodimer is eluted by equilibration buffer containing flag peptide (0.2 mg/ml). Aliquots of IDH1wt-his/IDH1R132C-flag are flash frozen in liquid N2 and stored at −80° C. Same conditions are used for the purification of IDH1wt-his/IDH1R132H-flag. In general terms: Resazurin is reduced to fluorescent resorufin, in cell work by metabolically active cells.
As a reminder, the IC50 is the concentration that gives 50% inhibition. In the case of `N#CC1(c2cc(Nc3nc(NCC(F)(F)F)nc(-c4cccc(C(F)(F)F)n4)n3)ccn2)CC1`, the IC50 result was “in the range around 75 nM”. Consider `N#CC1(c2cc(Nc3nc(NC4CC5(C4)CC(F)(F)C5)nc(-c4cccc(C(F)(F)F)n4)n3)ccn2)CC1`, for which the IC50 entry is “in the range around 75 nM”. In the case of `N#CC1(c2cc(Nc3nc(NC4CCC(F)(F)C4)nc(-c4cccc(C(F)(F)F)n4)n3)ccn2)CC1` (centres undefined) it was < 50 nM; in that of `N#CC1(c2cc(Nc3nc(NC4CCC(F)(F)CC4)nc(-c4cccc(C(F)(F)F)n4)n3)ccn2)CC1`, < 50 nM.
